The assay has as its system MV-4-11 cells. In words: Gene expression microarray analysis (Affymetrix PrimeView) and GSEA. It counts as cell-based, human. Details: RFU PODN (11730768_x_at) / Fold change /veh PODN (11730768_x_at) / RFU LINC00158 (11744669_a_at) / Fold change /veh LINC00158 (11744669_a_at) / RFU DUSP10 (11751237_a_at) / Fold change /veh DUSP10 (11751237_a_at) / RFU ID3 (11757404_x_at) / Fold change /veh ID3 (11757404_x_at) / RFU PLEKHG5 (11737974_s_at) / Fold change /veh PLEKHG5 (11737974_s_at) / RFU LRRC4B (11730491_at) / Fold change /veh LRRC4B (11730491_at) / RFU GIMAP4 (11747438_a_at) / Fold change /veh GIMAP4 (11747438_a_at) / RFU KRT8 (11758183_x_at) / Fold change /veh KRT8 (11758183_x_at) / RFU CNN1 (11734310_a_at) / Fold change /veh CNN1 (11734310_a_at) / RFU VPS37D (11726825_at) / Fold change /veh VPS37D (11726825_at) / RFU C10orf10 (11716522_x_at) / Fold change /veh C10orf10 (11716522_x_at) / RFU KIR2DL2 /// KIR2DL4 /// KIR2DL5A /// KIR2DL5B /// KIR2DS1 /// KIR2DS2 /// KIR2DS3 /// KIR2DS4 /// KIR3DL3 /// KIR3DL3 /// KIR3DS1 (11738374_at) / Fold change /veh KIR2DL2 /// KIR2DL4 /// KIR2DL5A /// KIR2DL5B /// KIR2DS1 /// KIR2DS2 /// KIR2DS3 /// KIR2DS4 /// KIR3DL3 /// KIR3DL3 /// KIR3DS1 (11738374_at) / RFU C1QL1 (11718748_at) / Fold change /veh C1QL1 (11718748_at) / RFU TMPRSS4 (11747572_a_at) / Fold change /veh TMPRSS4 (11747572_a_at) / RFU HAMP (11756126_x_at) / Fold change /veh HAMP (11756126_x_at) / RFU RNFT2 (11725882_a_at) / Fold change /veh RNFT2 (11725882_a_at) / RFU NR4A2 (11747474_a_at) / Fold change /veh NR4A2 (11747474_a_at) / RFU ABCC12 (11746883_a_at) / Fold change /veh ABCC12 (11746883_a_at) / RFU TMEM136 (11760407_x_at) / Fold change /veh TMEM136 (11760407_x_at) / RFU CLDN22 /// WWC2 (11732394_at) / Fold change /veh CLDN22 /// WWC2 (11732394_at) / RFU HLA-DPB1 (11760878_x_at) / Fold change /veh HLA-DPB1 (11760878_x_at) / RFU SPINT1 (11716480_a_at) / Fold change /veh SPINT1 (11716480_a_at) / RFU GAP43 (11754022_s_at) / Fold change /veh GAP43 (11754022_s_at) / RFU A4GNT (11735810_at) / Fold change /veh A4GNT (11735810_at) / RFU PRB3 (11715151_x_at) / Fold change /veh PRB3 (11715151_x_at) / RFU TUBB4B (11761932_at) / Fold change /veh TUBB4B (11761932_at) / RFU CAPN14 (11732068_a_at) / Fold change /veh CAPN14 (11732068_a_at) / RFU TMCC2 (11721928_a_at) / Fold change /veh TMCC2 (11721928_a_at) / RFU IRGQ (11745062_a_at) / Fold change /veh IRGQ (11745062_a_at) / RFU FAM174B (11720279_a_at) / Fold change /veh FAM174B (11720279_a_at) / RFU TMPRSS4 (11748680_a_at) / Fold change /veh TMPRSS4 (11748680_a_at) / RFU FAM212B (11763350_a_at) / Fold change /veh FAM212B (11763350_a_at) / RFU PLEKHG5 (11743358_a_at) / Fold change /veh PLEKHG5 (11743358_a_at) / RFU ZSCAN30 (11745921_a_at) / Fold change /veh ZSCAN30 (11745921_a_at) / RFU CMKLR1 (11741424_a_at) / Fold change /veh CMKLR1 (11741424_a_at) / RFU LOC101060620 /// MAPK8IP1 (11723275_at) / Fold change /veh LOC101060620 /// MAPK8IP1 (11723275_at) / RFU SPTSSB (11747773_x_at) / Fold change /veh SPTSSB (11747773_x_at) / RFU PRSS12 (11739890_at) / Fold change /veh PRSS12 (11739890_at) / RFU BIN1 (11741810_x_at) / Fold change /veh BIN1 (11741810_x_at) / RFU WNT11 (11732464_a_at) / Fold change /veh WNT11 (11732464_a_at) / RFU C10orf10 (11716521_a_at) / Fold change /veh C10orf10 (11716521_a_at) / RFU C5orf56 (11738089_at) / Fold change /veh C5orf56 (11738089_at) / RFU CYB561 (11721691_x_at) / Fold change /veh CYB561 (11721691_x_at) / RFU ANKRD19P (11752326_a_at) / Fold change /veh ANKRD19P (11752326_a_at) / RFU OR2T12 /// OR2T33 /// OR2T8 (11738714_s_at) / Fold change /veh OR2T12 /// OR2T33 /// OR2T8 (11738714_s_at) / RFU VCAN (11748164_a_at) / Fold change /veh VCAN (11748164_a_at) / RFU JSRP1 (11732532_at) / Fold change /veh JSRP1 (11732532_at) / RFU KRTAP10-11 (11738290_x_at) / Fold change /veh KRTAP10-11 (11738290_x_at) / RFU MYO3A (11730013_a_at) / Fold change /veh MYO3A (11730013_a_at) / RFU EBF3 (11725865_a_at) / Fold change /veh EBF3 (11725865_a_at) / RFU CAMK2N1 (11719241_x_at) / Fold change /veh CAMK2N1 (11719241_x_at) / RFU C5orf56 (11738088_a_at) / Fold change /veh C5orf56 (11738088_a_at) / RFU OLFML3 (11715873_a_at) / Fold change /veh OLFML3 (11715873_a_at) / RFU LOC100653217 /// NTM (11731650_a_at) / Fold change /veh LOC100653217 /// NTM (11731650_a_at) / RFU MAPK11 (11762145_a_at) / Fold change /veh MAPK11 (11762145_a_at) / RFU FIZ1 (11724087_x_at) / Fold change /veh FIZ1 (11724087_x_at) / RFU OASL (11726364_x_at) / Fold change /veh OASL (11726364_x_at) / RFU SOX15 (11748057_x_at) / Fold change /veh SOX15 (11748057_x_at) / RFU CD79A (11719716_a_at) / Fold change /veh CD79A (11719716_a_at) / RFU HIST1H1D (11736915_at) / Fold change /veh HIST1H1D (11736915_at) / RFU CASKIN2 (11723855_a_at) / Fold change /veh CASKIN2 (11723855_a_at) / RFU LOC730098 (11760151_x_at) / Fold change /veh LOC730098 (11760151_x_at) / RFU OR4N2 (11742367_at) / Fold change /veh OR4N2 (11742367_at) / RFU PRRT2 (11749266_a_at) / Fold change /veh PRRT2 (11749266_a_at) / RFU SNX32 (11753110_a_at) / Fold change /veh SNX32 (11753110_a_at) / RFU CDHR5 (11726645_a_at) / Fold change /veh CDHR5 (11726645_a_at) / RFU RCAN1 (11760418_a_at) / Fold change /veh RCAN1 (11760418_a_at) / RFU FAM167A (11723789_a_at) / Fold change /veh FAM167A (11723789_a_at) / RFU FAM26E (11764081_at) / Fold change /veh FAM26E (11764081_at) / RFU ISYNA1 (11749810_s_at) / Fold change /veh ISYNA1 (11749810_s_at) / RFU ACY1 (11761880_at) / Fold change /veh ACY1 (11761880_at) / RFU 11764098_at / Fold change /veh 11764098_at / RFU SAMD14 (11745864_x_at) / Fold change /veh SAMD14 (11745864_x_at) / RFU NPB (11741838_a_at) / Fold change /veh NPB (11741838_a_at) / RFU TMPRSS6 (11731388_a_at) / Fold change /veh TMPRSS6 (11731388_a_at) / RFU KRTAP10-2 (11738614_at) / Fold change /veh KRTAP10-2 (11738614_at) / RFU ARHGAP8 /// PRR5-ARHGAP8 (11727945_x_at) / Fold change /veh ARHGAP8 /// PRR5-ARHGAP8 (11727945_x_at) / RFU KRTAP5-7 /// NADSYN1 (11734609_at) / Fold change /veh KRTAP5-7 /// NADSYN1 (11734609_at) / RFU RASL12 (11751679_a_at) / Fold change /veh RASL12 (11751679_a_at) / RFU CDKN2B (11736163_a_at) / Fold change /veh CDKN2B (11736163_a_at) / RFU PRF1 (11729649_at) / Fold change /veh PRF1 (11729649_at) / RFU, ZNF638 /// ZNF638-IT1 / Fold change vs veh, ZNF638 /// ZNF638-IT1 / RFU, PANK3 / Fold change vs veh, PANK3 / RFU, SH3YL1 / Fold change vs veh, SH3YL1 / RFU, ZEB2 / Fold change vs veh, ZEB2 / RFU, NRIP1 / Fold change vs veh, NRIP1 / RFU, PTTG1IP / Fold change vs veh, PTTG1IP / RFU, CAPN2 / Fold change vs veh, CAPN2 / RFU, MED14 / Fold change vs veh, MED14 / RFU, SNORA58 / Fold change vs veh, SNORA58 / RFU, C1orf63 / Fold change vs veh, C1orf63 / RFU, LRRFIP1 / Fold change vs veh, LRRFIP1 / RFU, NDUFAF7 / Fold change vs veh, NDUFAF7 / RFU, SLC12A2 / Fold change vs veh, SLC12A2 / RFU, IBTK / Fold change vs veh, IBTK / RFU, ESF1 / Fold change vs veh, ESF1 / Fold change vs veh, TMEM50B / RFU, TAOK1 / Fold change vs veh, TAOK1 / RFU, ACBD3 / Fold change vs veh, ACBD3 / RFU, TMA16 / Fold change vs veh, TMA16 / RFU, RWDD3 / Fold change vs veh, RWDD3 / RFU, BCAT1 / Fold change vs veh, BCAT1 / RFU, EDEM3 / Fold change vs veh, EDEM3 / RFU, TMEM33 / Fold change vs veh, TMEM33 / RFU, WDR75 / Fold change vs veh, WDR75 / RFU, AHCTF1 / Fold change vs veh, AHCTF1 / RFU, TFRC / Fold change vs veh, TFRC / RFU, ZDHHC17 / Fold change vs veh, ZDHHC17 / RFU, NOM1 / Fold change vs veh, NOM1 / RFU, ARL8B / Fold change vs veh, ARL8B / RFU, ZBTB11 / Fold change vs veh, ZBTB11 / RFU, TAMM41 / Fold change vs veh, TAMM41 / RFU, KIAA1704 /// LOC100996395 / Fold change vs veh, KIAA1704 /// LOC100996395 / RFU, ING1 / Fold change vs veh, ING1 / RFU, TRMT61B / Fold change vs veh, TRMT61B / RFU, FUBP3 / Fold change vs veh, FUBP3 / RFU, TP53 / Fold change vs veh, TP53 / RFU, TNKS2 / Fold change vs veh, TNKS2 / RFU, ZFP14 / Fold change vs veh, ZFP14 / RFU, ACTR2 / Fold change vs veh, ACTR2 / RFU, PPP3R1 / Fold change vs veh, PPP3R1 / RFU, PIK3R1 / Fold change vs veh, PIK3R1 / RFU, HNRNPA1 / Fold change vs veh, HNRNPA1 / RFU, RNF170 / Fold change vs veh, RNF170 / RFU, ZNF28 / Fold change vs veh, ZNF28 / RFU, RNGTT / Fold change vs veh, RNGTT / RFU, OGT / Fold change vs veh, OGT / RFU, BRD1 / Fold change vs veh, BRD1 / RFU, MARS / Fold change vs veh, MARS / RFU, ZNF655 / Fold change vs veh, ZNF655 / RFU, FAHD1 / Fold change vs veh, FAHD1 / RFU, BDP1 / Fold change vs veh, BDP1 / RFU, LRRCC1 / Fold change vs veh, LRRCC1 / RFU, ARID1A / Fold change vs veh, ARID1A / RFU, ZNF146 / Fold change vs veh, ZNF146 / RFU, ZNF330 / Fold change vs veh, ZNF330 / RFU, GPN3 / Fold change vs veh, GPN3 / RFU, C9orf123 / Fold change vs veh, C9orf123 / RFU, N4BP2L2 / Fold change vs veh, N4BP2L2 / RFU, ARFIP1 / Fold change vs veh, ARFIP1 / RFU, FAM179B / Fold change vs veh, FAM179B / RFU, BCL10 / Fold change vs veh, BCL10 / RFU, UHRF1BP1L / Fold change vs veh, UHRF1BP1L / RFU, BET1 / Fold change vs veh, BET1 / RFU, CNOT2 / Fold change vs veh, CNOT2 / RFU, ZNF268 / Fold change vs veh, ZNF268 / Fold change vs veh, ZNF507 / RFU, DGCR2 / Fold change vs veh, DGCR2 / RFU, WDSUB1 / Fold change vs veh, WDSUB1 / Fold change vs veh, HSP90B1 /// MIR3652 / RFU, ADSS / Fold change vs veh, ADSS / RFU, GK / Fold change vs veh, GK / RFU, ZNF148 / Fold change vs veh, ZNF148 / RFU, TAF9 / Fold change vs veh, TAF9 / RFU, SLC1A5 / Fold change vs veh, SLC1A5 / RFU, SLMO2 / Fold change vs veh, SLMO2 / RFU, ABCC4 / Fold change vs veh, ABCC4 / RFU, LOC101060439 /// RAP1B / Fold change vs veh, LOC101060439 /// RAP1B / RFU, RFX7 / Fold change vs veh, RFX7 / RFU, GTPBP10 / Fold change vs veh, GTPBP10 / RFU, CNEP1R1 / Fold change vs veh, CNEP1R1 / RFU, BIVM-ERCC5 /// ERCC5 / Fold change vs veh, BIVM-ERCC5 /// ERCC5 / RFU, ILF3 / Fold change vs veh, ILF3 / RFU 11762660_at / Fold change /veh 11762660_at / RFU VCAN (11757783_s_at) / Fold change /veh VCAN (11757783_s_at) / RFU DDX43 (11728927_at) / Fold change /veh DDX43 (11728927_at) / RFU KRT8 (11758188_x_at) / Fold change /veh KRT8 (11758188_x_at) / RFU NKD1 (11759106_at) / Fold change /veh NKD1 (11759106_at) / RFU SRD5A1 (11742802_a_at) / Fold change /veh SRD5A1 (11742802_a_at) / RFU TPSAB1 /// TPSB2 (11721975_s_at) / Fold change /veh TPSAB1 /// TPSB2 (11721975_s_at) / RFU GSTM3 (11746129_a_at) / Fold change /veh GSTM3 (11746129_a_at) / RFU IL23R (11737362_x_at) / Fold change /veh IL23R (11737362_x_at) / RFU TMEM51 (11727254_a_at) / Fold change /veh TMEM51 (11727254_a_at) / RFU PIWIL2 (11732686_x_at) / Fold change /veh PIWIL2 (11732686_x_at) / RFU ORM1 (11744905_x_at) / Fold change /veh ORM1 (11744905_x_at) / RFU CCDC152 (11743942_at) / Fold change /veh CCDC152 (11743942_at) / RFU ECM1 (11717891_a_at) / Fold change /veh ECM1 (11717891_a_at) / RFU IL23R (11748794_a_at) / Fold change /veh IL23R (11748794_a_at) / RFU TNFAIP8L3 (11732012_x_at) / Fold change /veh TNFAIP8L3 (11732012_x_at) / RFU MBOAT4 (11741988_at) / Fold change /veh MBOAT4 (11741988_at) / RFU 11764193_at / Fold change /veh 11764193_at / RFU TMEM53 (11763286_at) / Fold change /veh TMEM53 (11763286_at) / RFU MAGEB2 (11727129_at) / Fold change /veh MAGEB2 (11727129_at) / RFU TMEM200A (11744735_a_at) / Fold change /veh TMEM200A (11744735_a_at) / RFU CCDC152 (11751479_a_at) / Fold change /veh CCDC152 (11751479_a_at) / RFU FAM211A (11726209_a_at) / Fold change /veh FAM211A (11726209_a_at) / RFU RGS16 (11746705_a_at) / Fold change /veh RGS16 (11746705_a_at) / RFU VCAN (11755009_s_at) / Fold change /veh VCAN (11755009_s_at) / RFU RHOB (11743442_s_at) / Fold change /veh RHOB (11743442_s_at) / RFU RGS16 (11720943_a_at) / Fold change /veh RGS16 (11720943_a_at) / RFU RGS16 (11720944_at) / Fold change /veh RGS16 (11720944_at) / RFU, VPS4B / Fold change vs veh, VPS4B / RFU, CREB1 / Fold change vs veh, CREB1 / RFU, DNAJC13 / Fold change vs veh, DNAJC13 / RFU, GNAQ / Fold change vs veh, GNAQ / RFU, CDK5R1 / Fold change vs veh, CDK5R1 / RFU, ZRANB3 / Fold change vs veh, ZRANB3 / RFU, CUL4A / Fold change vs veh, CUL4A / RFU, CCNY / Fold change vs veh, CCNY / RFU, UFL1 / Fold change vs veh, UFL1 / RFU, COG3 / Fold change vs veh, COG3 / RFU, DIAPH2 / Fold change vs veh, DIAPH2 / RFU, SKA2 / Fold change vs veh, SKA2 / RFU, AFF3 / Fold change vs veh, AFF3 / RFU, LMF1 / Fold change vs veh, LMF1 / RFU, IPO11 / Fold change vs veh, IPO11 / RFU, DFFB / Fold change vs veh, DFFB / RFU, FOXP1 / Fold change vs veh, FOXP1 / RFU, CARD8 / Fold change vs veh, CARD8 / RFU, STRN3 / Fold change vs veh, STRN3 / RFU, ADK / Fold change vs veh, ADK / RFU, RASSF2 / Fold change vs veh, RASSF2 / RFU, WIPF1 / Fold change vs veh, WIPF1 / RFU, LARP1B / Fold change vs veh, LARP1B / RFU, RASA1 / Fold change vs veh, RASA1 / RFU, RB1 / Fold change vs veh, RB1 / RFU, PPFIA1 / Fold change vs veh, PPFIA1 / RFU, MAT2A / Fold change vs veh, MAT2A / RFU, CCT5 / Fold change vs veh, CCT5 / RFU, WDR92 / Fold change vs veh, WDR92 / RFU, CUX1 / Fold change vs veh, CUX1 / RFU, TTC7A / Fold change vs veh, TTC7A / RFU, TMEM135 / Fold change vs veh, TMEM135 / RFU, DEPTOR / Fold change vs veh, DEPTOR / RFU, CPM / Fold change vs veh, CPM / RFU, DNAJB6 / Fold change vs veh, DNAJB6 / RFU, CACNA2D3 / Fold change vs veh, CACNA2D3 / RFU, DTX4 / Fold change vs veh, DTX4 / RFU, TFCP2 / Fold change vs veh, TFCP2 / RFU, GMCL1 /// GMCL1P1 / Fold change vs veh, GMCL1 /// GMCL1P1 / RFU, AEBP2 / Fold change vs veh, AEBP2 / RFU, SNHG1 /// SNORD22 /// SNORD25 /// SNORD26 /// SNORD27 /// SNORD28 /// SNORD29 /// SNORD31 / Fold change vs veh, SNHG1 /// SNORD22 /// SNORD25 /// SNORD26 /// SNORD27 /// SNORD28 /// SNORD29 /// SNORD31 / Fold change (Aza/veh), C12orf56 (ProbeSet 11735607_a_at) / Fold change (ACY-1035/veh), C12orf56 (ProbeSet 11735607_a_at) / Fold change (Aza/veh), FGFR1OP (ProbeSet 11751329_s_at) / Fold change (ACY-1035/veh), FGFR1OP (ProbeSet 11751329_s_at) / Fold change (Aza/veh), VPS36 (ProbeSet 11739960_a_at) / Fold change (ACY-1035/veh), VPS36 (ProbeSet 11739960_a_at) / RFU SYPL1 (11715823_x_at) / Fold change /veh SYPL1 (11715823_x_at) / RFU IGFBP7 (11715501_s_at) / Fold change /veh IGFBP7 (11715501_s_at) / RFU REEP3 (11722064_at) / Fold change /veh REEP3 (11722064_at) / RFU IGLL1 (11728026_x_at) / Fold change /veh IGLL1 (11728026_x_at): dose or concentration left out as unconfirmed. The following applies: MV-4-11 cells, 48 hours.

Take `Nc1ncn([C@@H]2O[C@H](CO)[C@@H](O)[C@H]2O)c(=O)n1` [azacitidine]: the “RFU KRTAP10-11 (11738290_x_at)” value is 43.89 RFU.

The values are drawn from publication PMC5218480 (PLoS ONE, 2017).
